experiment: Human plasma protein binding (equilibrium dialysis); format: in vitro ADME; details: dialysis 18 hours

Row | Human plasma protein binding (% free) | Structure (SMILES)
1 | 1.0 % free | C[C@@H]1Cc2c([nH]c3ccccc23)[C@@H](c2c(F)ccc(OCCNCCCF)c2Cl)N1CC(F)(F)CO [Example 85, 3-((1R,3R)-1-(2-chloro-6-fluoro-3-(2-((3-fluoropropyl)amino)ethoxy)phenyl)-3-methyl-1,3,4,9-tetrahydro-2H-pyrido[3,4-b]indol-2-yl)-2,2-difluoropropan-1-ol]
2 | 1.6 % free | Cc1c(OCCNCCCF)ccc(F)c1[C@@H]1c2[nH]c3ccccc3c2C[C@@H](C)N1CCC#N [Example 87, 3-((1R,3R)-1-(6-fluoro-3-(2-((3-fluoropropyl)amino)ethoxy)-2-methylphenyl)-3-methyl-1,3,4,9-tetrahydro-2H-pyrido[3,4-b]indol-2-yl)propanenitrile]
3 | 0.58 % free | C[C@@H]1Cc2c([nH]c3ccccc23)[C@@H](c2c(F)ccc(NCCNCCCF)c2F)N1CC(F)(F)F [Example 88, N1-(2,4-difluoro-3-((1R,3R)-3-methyl-2-(2,2,2-trifluoroethyl)-2,3,4,9-tetrahydro-1H-pyrido[3,4-b]indol-1-yl)phenyl)-N2-(3-fluoropropyl)ethane-1,2-diamine]
4 | <3.4 % free | C[C@@H]1Cc2c([nH]c3ccc(F)cc23)[C@@H](c2c(F)ccc(NCCNCCCF)c2F)N1CC(F)(F)CO [Example 89, 3-((1R,3R)-1-(2,6-difluoro-3-((2-((3-fluoropropyl)amino)ethyl)amino)phenyl)-6-fluoro-3-methyl-1,3,4,9-tetrahydro-2H-pyrido[3,4-b]indol-2-yl)-2,2-difluoropropan-1-ol]
5 | 4.6 % free | Cc1c(NCCNCCCF)ccnc1[C@@H]1c2[nH]c3ccccc3c2C[C@@H](C)N1CC(F)(F)F [Example 95, N1-(3-fluoropropyl)-N2-(3-methyl-2-((1S,3R)-3-methyl-2-(2,2,2-trifluoroethyl)-2,3,4,9-tetrahydro-1H-pyrido[3,4-b]indol-1-yl)pyridin-4-yl)ethane-1,2-diamine]
6 | 7.1 % free | Cc1c(OCCNCCCF)ccnc1[C@@H]1c2[nH]c3ccccc3c2C[C@@H](C)N1CC(F)(F)CO [Example 96, 2,2-difluoro-3-((1S,3R)-1-(4-(2-((3-fluoropropyl)amino)ethoxy)-3-methylpyridin-2-yl)-3-methyl-1,3,4,9-tetrahydro-2H-pyrido[3,4-b]indol-2-yl)propan-1-ol]
7 | 6.8 % free | C[C@@H]1Cc2c([nH]c3ccccc23)[C@@H](c2nccc(OCCNCCCF)c2F)N1CC(F)(F)CO [Example 97, 2,2-difluoro-3-((1S,3R)-1-(3-fluoro-4-(2-((3-fluoropropyl)amino)ethoxy)pyridin-2-yl)-3-methyl-1,3,4,9-tetrahydro-2H-pyrido[3,4-b]indol-2-yl)propan-1-ol]
8 | 2 % free | Cc1c([C@@H]2c3[nH]c4ccccc4c3C[C@@H](C)N2CC(F)(F)CO)ccnc1OCCNCCCF [Example 103, 2,2-difluoro-3-((1R,3R)-1-(2-(2-((3-fluoropropyl)amino)ethoxy)-3-methylpyridin-4-yl)-3-methyl-1,3,4,9-tetrahydro-2H-pyrido[3,4-b]indol-2-yl)propan-1-ol]
9 | 2.8 % free | C[C@@H]1Cc2c([nH]c3ccccc23)[C@@H](c2ccnc(OCCNCCCF)c2Cl)N1CC(F)(F)CO [Example 104, 3-((1R,3R)-1-(3-chloro-2-(2-((3-fluoropropyl)amino)ethoxy)pyridin-4-yl)-3-methyl-1,3,4,9-tetrahydro-2H-pyrido[3,4-b]indol-2-yl)-2,2-difluoropropan-1-ol]

Further lines, the molecule ahead of its results:

Row | Structure (SMILES) | Human plasma protein binding (% free)
10 | COc1ccc(OCCNCCCF)c(F)c1[C@@H]1c2[nH]c3ccc(F)cc3c2C[C@@H](C)N1CC(F)(F)CO [Example 86, 2,2-difluoro-3-((1R,3R)-6-fluoro-1-(2-fluoro-3-(2-((3-fluoropropyl)amino)ethoxy)-6-methoxyphenyl)-3-methyl-1,3,4,9-tetrahydro-2H-pyrido[3,4-b]indol-2-yl)propan-1-ol] | 2.6 % free
11 | COc1ccc(NCCNCCCF)c(F)c1[C@@H]1c2[nH]c3ccccc3c2C[C@@H](C)N1CC(F)(F)F [Example 90, N1-(2-fluoro-4-methoxy-3-((1R,3R)-3-methyl-2-(2,2,2-trifluoroethyl)-2,3,4,9-tetrahydro-1H-pyrido[3,4-b]indol-1-yl)phenyl)-N2-(3-fluoropropyl)ethane-1,2-diamine] | 1.1 % free
12 | COc1cc(F)c(NCCNCCCF)cc1[C@@H]1c2[nH]c3ccccc3c2C[C@@H](C)N1CC(F)(F)F [Example 91, N1-(2-fluoro-4-methoxy-5-((1R,3R)-3-methyl-2-(2,2,2-trifluoroethyl)-2,3,4,9-tetrahydro-1H-pyrido[3,4-b]indol-1-yl)phenyl)-N2-(3-fluoropropyl)ethane-1,2-diamine] | 0.93 % free
13 | C[C@@H]1Cc2c([nH]c3ccccc23)[C@@H](c2nccc(OCCNCCCF)c2Cl)N1CC(F)(F)F [Example 93, N-(2-((3-chloro-2-((1S,3R)-3-methyl-2-(2,2,2-trifluoroethyl)-2,3,4,9-tetrahydro-1H-pyrido[3,4-b]indol-1-yl)pyridin-4-yl)oxy)ethyl)-3-fluoropropan-1-amine] | 0.34 % free
14 | C[C@@H]1Cc2c([nH]c3ccccc23)[C@@H](c2nccc(NCCNCCCF)c2F)N1CC(F)(F)F [Example 94, N1-(3-fluoro-2-((1S,3R)-3-methyl-2-(2,2,2-trifluoroethyl)-2,3,4,9-tetrahydro-1H-pyrido[3,4-b]indol-1-yl)pyridin-4-yl)-N2-(3-fluoropropyl)ethane-1,2-diamine] | 7 % free
15 | C[C@@H]1Cc2c([nH]c3ccccc23)[C@@H](c2cncc(OCCNCCCF)c2)N1CC(F)(F)F [Example 101, 3-fluoro-N-(2-((5-((1R,3R)-3-methyl-2-(2,2,2-trifluoroethyl)-2,3,4,9-tetrahydro-1H-pyrido[3,4-b]indol-1-yl)pyridin-3-yl)oxy)ethyl)propan-1-amine] | 8.4 % free
16 | C[C@@H]1Cc2c([nH]c3ccccc23)[C@@H](c2ccnc(OCCNCCCF)c2)N1CC(F)(F)F [Example 102, 3-fluoro-N-(2-((4-((1R,3R)-3-methyl-2-(2,2,2-trifluoroethyl)-2,3,4,9-tetrahydro-1H-pyrido[3,4-b]indol-1-yl)pyridin-2-yl)oxy)ethyl)propan-1-amine] | 1.4 % free
17 | Cc1ccc(OCCNCCCF)nc1[C@@H]1c2[nH]c3ccccc3c2C[C@@H](C)N1CC(F)(F)F [Example 105, 3-fluoro-N-(2-((5-methyl-6-((1S,3R)-3-methyl-2-(2,2,2-trifluoroethyl)-2,3,4,9-tetrahydro-1H-pyrido[3,4-b]indol-1-yl)pyridin-2-yl)oxy)ethyl)propan-1-amine] | 1 % free
18 | Cc1c([C@@H]2c3[nH]c4ccccc4c3C[C@@H](C)N2CC(F)(F)F)ccnc1OCCNCCCF [Example 106, 3-fluoro-N-(2-((3-methyl-4-((1R,3R)-3-methyl-2-(2,2,2-trifluoroethyl)-2,3,4,9-tetrahydro-1H-pyrido[3,4-b]indol-1-yl)pyridin-2-yl)oxy)ethyl)propan-1-amine] | 0.34 % free
